Test: Solubility properties of the water soluble polar solvents (nitrapyrin solubility, water solubility)
Settings: water solubility of the polar solvent

- water solubility: 100%
Structure (SMILES): COC(C)COC(C)CO (stereo not shown) [Dowanol DPM, dipropylene glycol monomethyl ether]
